Calls of active or inactive are those of the source.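 Rule for the calls: active = signal decrease with fitted half-maximal dose at or below ten times the highest valid tested dose; inconclusive = poor fit, or flat fit at 30 to 70% inhibition; inactive = the rest.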
molecular target: Zinc finger protein mex-5 (Caenorhabditis elegans) (UniProt Q9XUB2); assay: inhibitors of MEX-5 RNA binding, dose response, biochemical, fluorescence polarization, C. elegans, cherry-picked, round 3 (AID 493250); conditions: purified MEX-5-MBP, FITC-TCR2 RNA fluorescence polarization;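 for activity change, negative = inhibition: 0% = DMSO neutral control and -100% = 5 µM unlabeled TCR2 competitor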
Sequence (Q9XUB2 whole entry, looked up): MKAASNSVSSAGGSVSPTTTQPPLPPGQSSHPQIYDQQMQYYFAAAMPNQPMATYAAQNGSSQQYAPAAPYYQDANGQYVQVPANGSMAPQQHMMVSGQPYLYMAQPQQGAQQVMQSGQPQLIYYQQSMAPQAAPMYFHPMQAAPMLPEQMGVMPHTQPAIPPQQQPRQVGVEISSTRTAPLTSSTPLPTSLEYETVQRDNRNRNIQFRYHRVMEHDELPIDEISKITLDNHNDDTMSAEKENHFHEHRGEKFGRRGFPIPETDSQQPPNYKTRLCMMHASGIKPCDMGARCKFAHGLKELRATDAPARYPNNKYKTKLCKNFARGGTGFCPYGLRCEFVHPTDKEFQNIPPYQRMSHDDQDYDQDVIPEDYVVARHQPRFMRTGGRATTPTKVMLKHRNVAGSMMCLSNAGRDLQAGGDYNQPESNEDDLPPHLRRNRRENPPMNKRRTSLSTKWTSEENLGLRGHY

SMILES	AC50 [µM]
N=C1CCC(=N)c2c1c(O)c1ccccc1c2O	6.52
COc1ccc(NC(=O)c2cccc(-c3ccc(O)cc3)c2)cn1	3.91
CCOCCCn1c(=N)c(S(=O)(=O)c2ccccc2)cc2c(=O)n3cc(C)ccc3nc21	10.3
Cn1c(O)c(N=Nc2ccc(F)cc2)c2ccccc21	1.75

same assay, conditions: purified MEX-5-MBP, FITC-TCR2 RNA fluorescence polarization; at 10 µM (top of the series)

SMILES	activity change, negative = inhibition
COc1cc(/C=N/NC(=O)CNS(=O)(=O)c2ccc(C)cc2)cc(OC)c1OC	inactive
CC(=O)NNc1ncnc2ccccc12	inactive
Cc1c(O)ccc(-c2[nH]ncc2-c2nc3ccccc3s2)c1O	inactive
Cc1nc2cc(C(=O)O)ccc2n1-c1ccc(F)cc1F	inactive
Cc1ccc(C(=O)/C=C/c2ccccc2[N+](=O)[O-])cc1	inactive
CN1C(=O)NC(c2ccccc2Cl)C2=C1CC(C)(C)CC2=O (stereo not drawn)	inactive
Nc1nc(N)c2[nH]cnc2n1	inactive
Cn1ncc2c(NNC(=O)c3ccccc3Cl)ncnc21	inactive
CC(C)=CCc1c(O)cc(O)c2c(=O)c(O[C@@H]3O[C@@H](C)[C@H](O)[C@@H](O)[C@H]3O)c(-c3ccc(O)cc3)oc12	inactive
Cc1cc(C)c2ccc(C(=O)O)nc2c1O	inactive
Oc1c(C=Nc2ccccc2)sc(=S)n1Cc1ccccc1	inactive
COc1ccc(NCc2cccnc2)cc1	inactive
CCCNc1nc2ccccc2n2c(C)nnc12	inactive
CN(C)C(=O)Oc1ccc2c(c1)O/C(=C\c1ccccc1)C2=O	inactive
COc1ccc(/C=N/NC(=S)Nc2cccc(C(=O)O)c2)cc1	inactive
O=C(Cc1csc(N2CCOCC2)n1)N/N=C/c1ccc(O)c(O)c1O	inactive
COc1cc(/C=N/NC(=S)Nc2cccc(C(=O)O)c2)ccc1O	inactive
CCN(CC)c1ccc(N=Cc2c(O)n(-c3ccccc3C)c(=O)[nH]c2=O)cc1	inactive
CC(=O)Nc1ccc(/C=N/NC(=O)CNS(=O)(=O)c2ccccc2)cc1	inactive

Source: PubChem BioAssay AID493250 (Broad Institute, 2011)
